Experimental data taken from patent US20020052295A1, “Diacyl derivatives of propylene diamine having herbicidal activity” (priority 1999, published 2002).

Legend:
ABUTH [1] = test: Pre-emergence herbicidal activity on ABUTH (velvetleaf); assay type: in vivo, Abutilon theophrasti; conditions: lowest tested rate giving 80% or greater inhibition, approx. 14 days after planting and treating, greenhouse
Outline: (§1)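 Steps: sterilized fertilized topsoil potted; seeds sown, covered; compound (50:50 acetone/water dilution) applied to soil surface; 0.64 cm overhead irrigation; greenhouse 30/21 °C day/night; % inhibition vs untreated scored at ~14 d; GR80 calculated.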

SOLNI [2] = test: Pre-emergence herbicidal activity on SOLNI (black nightshade); assay type: in vivo, Solanum nigrum; conditions: lowest tested rate giving 80% or greater inhibition, approx. 14 days after planting and treating, greenhouse
Outline: as §1

AMARE [3] = test: Pre-emergence herbicidal activity on AMARE (redroot pigweed); assay type: in vivo, Amaranthus retroflexus; conditions: lowest tested rate giving 80% or greater inhibition, approx. 14 days after planting and treating, greenhouse
Outline: as §1

DATST [4] = test: Pre-emergence herbicidal activity on DATST (jimsonweed); assay type: in vivo, Datura stramonium; conditions: lowest tested rate giving 80% or greater inhibition, approx. 14 days after planting and treating, greenhouse
Outline: as §1

CHEAL [5] = test: Pre-emergence herbicidal activity on CHEAL (common lambsquarters); assay type: in vivo, Chenopodium album; conditions: lowest tested rate giving 80% or greater inhibition, approx. 14 days after planting and treating, greenhouse
Outline: as §1

CONAR [6] = test: Pre-emergence herbicidal activity on CONAR (field bindweed); assay type: in vivo, Convolvulus arvensis; conditions: lowest tested rate giving 80% or greater inhibition, approx. 14 days after planting and treating, greenhouse
Outline: as §1

POROL [7] = test: Pre-emergence herbicidal activity on POROL (common purslane); assay type: in vivo, Portulaca oleracea; conditions: lowest tested rate giving 80% or greater inhibition, approx. 14 days after planting and treating, greenhouse
Outline: as §1

CIRAR [8] = test: Pre-emergence herbicidal activity on CIRAR (canada thistle, seedling); assay type: in vivo, Cirsium arvense; conditions: lowest tested rate giving 80% or greater inhibition, approx. 14 days after planting and treating, greenhouse
Outline: as §1

ECHCG [9] = test: Pre-emergence herbicidal activity on ECHCG (barnyardgrass); assay type: in vivo, Echinochloa crus-galli; conditions: lowest tested rate giving 80% or greater inhibition, approx. 14 days after planting and treating, greenhouse
Outline: as §1

PANMI [10] = test: Pre-emergence herbicidal activity on PANMI (wild proso millet); assay type: in vivo, Panicum miliaceum; conditions: lowest tested rate giving 80% or greater inhibition, approx. 14 days after planting and treating, greenhouse
Outline: as §1

SORHA [11] = test: Pre-emergence herbicidal activity on SORHA (johnsongrass, seedling); assay type: in vivo, Sorghum halepense; conditions: lowest tested rate giving 80% or greater inhibition, approx. 14 days after planting and treating, greenhouse
Outline: as §1

SETFA = test: Pre-emergence herbicidal activity on SETFA (giant foxtail); assay type: in vivo, Setaria faberi; conditions: lowest tested rate giving 80% or greater inhibition, approx. 14 days after planting and treating, greenhouse
Outline: as §1

PANDI [12] = test: Pre-emergence herbicidal activity on PANDI (fall panicum); assay type: in vivo, Panicum dichotomiflorum; conditions: lowest tested rate giving 80% or greater inhibition, approx. 14 days after planting and treating, greenhouse
Outline: as §1

SORVU [13] = test: Pre-emergence herbicidal activity on SORVU (shattercane); assay type: in vivo, Sorghum vulgare; conditions: lowest tested rate giving 80% or greater inhibition, approx. 14 days after planting and treating, greenhouse
Outline: as §1

BRAPP [14] = test: Pre-emergence herbicidal activity on BRAPP (broadleaf signalgrass); assay type: in vivo, Brachiaria platyphylla; conditions: lowest tested rate giving 80% or greater inhibition, approx. 14 days after planting and treating, greenhouse
Outline: as §1

DIGSA [15] = test: Pre-emergence herbicidal activity on DIGSA (large crabgrass); assay type: in vivo, Digitaria sanguinalis; conditions: lowest tested rate giving 80% or greater inhibition, approx. 14 days after planting and treating, greenhouse
Outline: as §1

ABUTH [16] = test: Post-emergence herbicidal activity on ABUTH (velvetleaf); assay type: in vivo, Abutilon theophrasti; conditions: post-emergence spray; lowest tested rate with 80% or greater inhibition; about 14 days after treatment
Source text: (§2) All such uses, and the biological activity enabling such uses, are embraced by the term “herbicidal” herein. Tables 15 and 16 summarize results of tests conducted as described below to determine the pre-emergence herbicidal activity, in the form of a GR80 value, of illustrative compounds of this invention. […] Where herbicidal activity was evident but 80% inhibition was not achieved at the highest rate tested (typically 1000 g/ha), an asterisk (*) is shown in the following tables. Herbicidal activity evident in the form of symptoms of phytotoxicity, in the absence of at least 80% inhibition at any rate, is indicated in the tables by “phyto”. A blank cell in the following tables indicates no herbicidal or phytotoxic response at any rate tested.
(§3) In another set of tests, the post-emergence activity of compounds of this invention was evaluated on the cool season species listed above. The following procedure was used.
(§4) A pre-prepared topsoil mixture (described above) was placed in a pot and compacted to a depth of 1.0 to 1.25 cm from the top of the pot. Seeds of each of several monocotyledonous and dicotyledonous annual plant species were placed on top of the soil The seeds were covered with a mixture of 50% topsoil and 50% Rediearth™ in sufficient quantity to level-fill the pots. The pots were then placed on a greenhouse bench and subirrigated as needed until plants growing from the seeds had emerged and reached a suitable growth stage for post-emergence treatment, typically 9 to 14 days after planting.
(§5) A known amount of each test compound dissolved or suspended in an appropriate organic solvent was diluted with a 50:50 mix of acetone and water and applied to the plants by spraying with a standard spray nozzle in a spray volume of 3,100 l/ha at a spray pressure of […] (30 psig). Control plants were not sprayed.
(§6) After treatment the plants were placed in a greenhouse with a 30/21° C. day/night temperature regime and were subsequently watered as needed for growth. Approximately 14 days after treatment, the plants were observed and herbicidal efficacy recorded as percent inhibition by comparison with control plants.

SOLNI [17] = test: Post-emergence herbicidal activity on SOLNI (black nightshade); assay type: in vivo, Solanum nigrum; conditions: post-emergence spray; lowest tested rate with 80% or greater inhibition; about 14 days after treatment
Source text: as §2, §3, §4, §5, §6

AMARE [18] = test: Post-emergence herbicidal activity on AMARE (redroot pigweed); assay type: in vivo, Amaranthus retroflexus; conditions: post-emergence spray; lowest tested rate with 80% or greater inhibition; about 14 days after treatment
Source text: as §2, §3, §4, §5, §6

DATST [19] = test: Post-emergence herbicidal activity on DATST (jimsonweed); assay type: in vivo, Datura stramonium; conditions: post-emergence spray; lowest tested rate with 80% or greater inhibition; about 14 days after treatment
Source text: as §2, §3, §4, §5, §6

CHEAL [20] = test: Post-emergence herbicidal activity on CHEAL (common lambsquarters); assay type: in vivo, Chenopodium album; conditions: post-emergence spray; lowest tested rate with 80% or greater inhibition; about 14 days after treatment
Source text: as §2, §3, §4, §5, §6

CONAR [21] = test: Post-emergence herbicidal activity on CONAR (field bindweed); assay type: in vivo, Convolvulus arvensis; conditions: post-emergence spray; lowest tested rate with 80% or greater inhibition; about 14 days after treatment
Source text: as §2, §3, §4, §5, §6

POROL [22] = test: Post-emergence herbicidal activity on POROL (common purslane; table head prints PORAL); assay type: in vivo, Portulaca oleracea; conditions: post-emergence spray; lowest tested rate with 80% or greater inhibition; about 14 days after treatment
Source text: as §2, §3, §4, §5, §6

CIRAR [23] = test: Post-emergence herbicidal activity on CIRAR (canada thistle, seedling); assay type: in vivo, Cirsium arvense; conditions: post-emergence spray; lowest tested rate with 80% or greater inhibition; about 14 days after treatment
Source text: as §2, §3, §4, §5, §6

ECHCG [24] = test: Post-emergence herbicidal activity on ECHCG (barnyardgrass); assay type: in vivo, Echinochloa crus-galli; conditions: post-emergence spray; lowest tested rate with 80% or greater inhibition; about 14 days after treatment
Source text: as §2, §3, §4, §5, §6

PANMI [25] = test: Post-emergence herbicidal activity on PANMI (wild proso millet); assay type: in vivo, Panicum miliaceum; conditions: post-emergence spray; lowest tested rate with 80% or greater inhibition; about 14 days after treatment
SORHA [26] = test: Post-emergence herbicidal activity on SORHA (johnsongrass, seedling); assay type: in vivo, Sorghum halepense; conditions: post-emergence spray; lowest tested rate with 80% or greater inhibition; about 14 days after treatment
Source text: as §2, §3, §4, §5, §6

PANDI [27] = test: Post-emergence herbicidal activity on PANDI (fall panicum); assay type: in vivo, Panicum dichotomiflorum; conditions: post-emergence spray; lowest tested rate with 80% or greater inhibition; about 14 days after treatment
Source text: as §2, §3, §4, §5, §6

SORVU [28] = test: Post-emergence herbicidal activity on SORVU (shattercane); assay type: in vivo, Sorghum vulgare; conditions: post-emergence spray; lowest tested rate with 80% or greater inhibition; about 14 days after treatment
Source text: as §2, §3, §4, §5, §6

BRAPP [29] = test: Post-emergence herbicidal activity on BRAPP (broadleaf signalgrass); assay type: in vivo, Brachiaria platyphylla; conditions: post-emergence spray; lowest tested rate with 80% or greater inhibition; about 14 days after treatment
Source text: as §2, §3, §4, §5, §6

DIGSA [30] = test: Post-emergence herbicidal activity on DIGSA (large crabgrass); assay type: in vivo, Digitaria sanguinalis; conditions: post-emergence spray; lowest tested rate with 80% or greater inhibition; about 14 days after treatment

CC(CNC(=O)c1cccc(C(F)(F)F)c1)NC(=O)c1cccc(F)c1F (stereo not drawn) [Example 34]
Pre-emergence activity (GR80) on ABUTH (ABUTH [1]): 500 g/ha
Pre-emergence activity (GR80) on SOLNI (SOLNI [2]): 250 g/ha
Pre-emergence activity (GR80) on AMARE (AMARE [3]): 125 g/ha
Pre-emergence activity (GR80) on DATST (DATST [4]): 250 g/ha
Pre-emergence activity (GR80) on CHEAL (CHEAL [5]): 125 g/ha
Pre-emergence activity (GR80) on CONAR (CONAR [6]): 750 g/ha
Pre-emergence activity (GR80) on PORAL (POROL [7]): 125 g/ha
Pre-emergence activity (GR80) on CIRAR (CIRAR [8]): 125 g/ha
Pre-emergence activity (GR80) on ECHCG (ECHCG [9]): 1000 g/ha
Pre-emergence activity (GR80) on PANMI (PANMI [10]): 250 g/ha
Pre-emergence activity (GR80) on SORHA (SORHA [11]): 750 g/ha
Pre-emergence activity (GR80) on SETFA (SETFA): 250 g/ha
Pre-emergence activity (GR80) on PANDI (PANDI [12]): 125 g/ha
Pre-emergence activity (GR80) on SORVU (SORVU [13]): phyto
Pre-emergence activity (GR80) on BRAPP (BRAPP [14]): 250 g/ha
Pre-emergence activity (GR80) on DIGSA (DIGSA [15]): 125 g/ha
Post-emergence activity (GR80) ABUTH (ABUTH [16]): phyto
Post-emergence activity (GR80) SOLNI (SOLNI [17]): phyto
Post-emergence activity (GR80) AMARE (AMARE [18]): 750 g/ha
Post-emergence activity (GR80) DATST (DATST [19]): 750 g/ha
Post-emergence activity (GR80) CHEAL (CHEAL [20]): * (Where herbicidal activity was evident but 80% inhibition was not achieved at the highest rate tested (typically 1000 g/ha), an asterisk (*) is shown)
Post-emergence activity (GR80) CONAR (CONAR [21]): * (Where herbicidal activity was evident but 80% inhibition was not achieved at the highest rate tested (typically 1000 g/ha), an asterisk (*) is shown)
Post-emergence activity (GR80) PORAL (POROL [22]): 250 g/ha
Post-emergence activity (GR80) CIRAR (CIRAR [23]): 1000 g/ha

O=C(NCC(CCl)NC(=O)c1cccc(C(F)(F)F)c1)c1cccc(C(F)(F)F)c1 (stereo not drawn) [Example 12, N,N′-(3-chloro-1,2-propanediylbis)-3-(trifluoromethyl)benzamide]
Post-emergence activity (GR80) ABUTH (ABUTH [16]): [empty]
Post-emergence activity (GR80) SOLNI (SOLNI [17]): [empty]
Post-emergence activity (GR80) AMARE (AMARE [18]): [empty]
Post-emergence activity (GR80) DATST (DATST [19]): [empty]
Post-emergence activity (GR80) CHEAL (CHEAL [20]): [empty]
Post-emergence activity (GR80) CONAR (CONAR [21]): [empty]
Post-emergence activity (GR80) PORAL (POROL [22]): 1000 g/ha
Post-emergence activity (GR80) CIRAR (CIRAR [23]): 1000 g/ha
Post-emergence activity (GR80) ECHCG (ECHCG [24]): [empty]
Post-emergence activity (GR80) PANMI (PANMI [25]): [empty]
Post-emergence activity (GR80) SORHA (SORHA [26]): [empty]
Post-emergence activity (GR80) PANDI (PANDI [27]): [empty]
Post-emergence activity (GR80) SORVU (SORVU [28]): [empty]
Post-emergence activity (GR80) BRAPP (BRAPP [29]): [empty]
Post-emergence activity (GR80) DIGSA (DIGSA [30]): [empty]
